Laboratory results from ChEMBL document CHEMBL4665834 (J Med Chem, 2020).
In brackets after ≈: the same amount, converted by molar mass. Activity calls are given as the source filed them. The calls are words filed in the database; no cut-off is given here.

Key:
Prostacyclin receptor = Prostacyclin receptor (Homo sapiens, UniProt P43119); experiment: Displacement of [3H]PGD2 from full-length recombinant human IP receptor expressed in HEK293 cell membranes measured after 60 mins by scintillation counting method
Sequence of Prostacyclin receptor (P43119 whole entry): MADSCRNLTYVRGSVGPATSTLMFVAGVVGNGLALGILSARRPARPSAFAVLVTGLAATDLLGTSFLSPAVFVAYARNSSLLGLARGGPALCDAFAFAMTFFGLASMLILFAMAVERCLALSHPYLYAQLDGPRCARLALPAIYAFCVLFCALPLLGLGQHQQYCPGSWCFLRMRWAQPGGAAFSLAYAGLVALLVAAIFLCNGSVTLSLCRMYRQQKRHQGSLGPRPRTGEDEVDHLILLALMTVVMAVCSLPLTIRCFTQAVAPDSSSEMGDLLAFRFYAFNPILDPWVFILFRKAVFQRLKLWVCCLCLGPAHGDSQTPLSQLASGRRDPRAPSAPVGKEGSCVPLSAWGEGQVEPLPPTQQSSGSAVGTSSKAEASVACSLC

[1] = biological target: Prostaglandin D2 receptor (Homo sapiens) (UniProt Q13258); experiment: Displacement of [3H]PGD2 from full-length recombinant human DP1 receptor expressed in Chem-1 cell membranes measured after 120 mins by scintillation counting method
[2] = biological target: Prostaglandin E2 receptor EP4 subtype (Homo sapiens, UniProt P35408); experiment: Displacement of [3H]prostaglandin E2 from full-length recombinant human EP4 receptor expressed in HEK293 cell membranes measured after 120 mins by scintillation counting method
Sequence of Prostaglandin E2 receptor EP4 subtype (P35408 whole entry): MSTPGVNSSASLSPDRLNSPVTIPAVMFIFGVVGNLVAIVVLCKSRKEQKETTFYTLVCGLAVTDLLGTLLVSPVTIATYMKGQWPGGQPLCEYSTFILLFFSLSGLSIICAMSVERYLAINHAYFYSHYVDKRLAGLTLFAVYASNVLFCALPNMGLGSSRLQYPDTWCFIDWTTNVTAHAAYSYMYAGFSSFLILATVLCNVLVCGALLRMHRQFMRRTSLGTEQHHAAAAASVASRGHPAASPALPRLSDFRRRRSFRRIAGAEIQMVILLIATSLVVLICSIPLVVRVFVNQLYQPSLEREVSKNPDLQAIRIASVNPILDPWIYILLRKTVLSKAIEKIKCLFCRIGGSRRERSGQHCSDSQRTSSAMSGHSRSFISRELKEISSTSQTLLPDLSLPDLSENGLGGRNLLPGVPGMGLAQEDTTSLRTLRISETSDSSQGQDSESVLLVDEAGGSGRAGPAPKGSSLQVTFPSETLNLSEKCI

[3] = biological target: Prostaglandin E2 receptor EP3 subtype (Homo sapiens) (UniProt P43115); experiment: Displacement of [3H]prostaglandin E2 from full-length recombinant human EP3 receptor expressed in HEK293 cell membranes measured after 120 mins by scintillation counting method
[4] = biological target: Prostaglandin E2 receptor EP2 subtype (Homo sapiens, UniProt P43116); experiment: Displacement of [3H]prostaglandin E2 from full-length recombinant human EP2 receptor expressed in HEK293 cell membranes measured after 120 mins by scintillation counting method
Sequence of Prostaglandin E2 receptor EP2 subtype (P43116 whole entry): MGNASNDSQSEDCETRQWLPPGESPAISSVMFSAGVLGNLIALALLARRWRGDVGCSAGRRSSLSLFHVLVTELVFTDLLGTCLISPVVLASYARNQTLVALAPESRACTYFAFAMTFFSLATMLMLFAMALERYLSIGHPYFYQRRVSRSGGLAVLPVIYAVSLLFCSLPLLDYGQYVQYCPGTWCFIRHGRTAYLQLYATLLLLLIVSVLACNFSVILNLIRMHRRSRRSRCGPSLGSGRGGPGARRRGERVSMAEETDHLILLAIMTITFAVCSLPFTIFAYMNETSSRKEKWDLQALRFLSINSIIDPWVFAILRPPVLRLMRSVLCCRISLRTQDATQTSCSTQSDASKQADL

[5] = biological target: Prostaglandin E2 receptor EP1 subtype (Homo sapiens) (UniProt P34995); experiment: Displacement of [3H]prostaglandin E2 from full-length recombinant human EP1 receptor expressed in HEK293 cell membranes measured after 60 mins by scintillation counting method
Sequence of Prostaglandin E2 receptor EP1 subtype (Homo sapiens) (P34995 whole entry): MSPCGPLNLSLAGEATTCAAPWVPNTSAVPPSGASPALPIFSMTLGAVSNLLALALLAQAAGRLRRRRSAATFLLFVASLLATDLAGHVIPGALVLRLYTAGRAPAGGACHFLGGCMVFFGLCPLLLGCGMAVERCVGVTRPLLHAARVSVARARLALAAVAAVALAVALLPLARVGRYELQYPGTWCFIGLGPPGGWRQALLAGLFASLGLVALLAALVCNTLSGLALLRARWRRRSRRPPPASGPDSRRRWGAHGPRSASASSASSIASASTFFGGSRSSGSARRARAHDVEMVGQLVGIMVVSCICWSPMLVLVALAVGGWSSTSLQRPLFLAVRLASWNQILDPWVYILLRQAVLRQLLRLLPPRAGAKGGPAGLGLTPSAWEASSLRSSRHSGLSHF

[6] = biological target: T1, Prostaglandin F2-alpha receptor (Homo sapiens, UniProt P43088); experiment: Displacement of [3H]PGF2alpha from full-length recombinant human FP receptor expressed in HEK293 cell membranes measured after 60 mins by scintillation counting method
T1 sequence (P43088 whole entry): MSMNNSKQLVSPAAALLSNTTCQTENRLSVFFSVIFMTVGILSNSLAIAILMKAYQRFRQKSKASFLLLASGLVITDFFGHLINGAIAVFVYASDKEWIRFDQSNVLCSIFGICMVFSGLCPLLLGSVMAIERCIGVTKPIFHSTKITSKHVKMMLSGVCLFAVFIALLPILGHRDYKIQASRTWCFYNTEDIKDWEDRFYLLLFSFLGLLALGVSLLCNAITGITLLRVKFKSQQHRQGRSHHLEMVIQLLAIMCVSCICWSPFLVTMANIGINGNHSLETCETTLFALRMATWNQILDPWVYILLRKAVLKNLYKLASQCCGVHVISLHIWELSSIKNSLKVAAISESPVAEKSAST

Homo sapiens [7] = species on record: Homo sapiens; experiment: Selectivity ratio of IC50 for displacement of [3H]PGD2 from full-length recombinant human IP receptor expressed in HEK293 cell membranes to IC50 for displacement of [3H]PGF2alpha from full-length recombinant human FP receptor expressed in HEK293 cell membranes
Homo sapiens [8] = species on record: Homo sapiens; experiment: Selectivity ratio of IC50 for displacement of [3H]PGD2 from full-length recombinant human DP1 receptor expressed in Chem-1 cell membranes to IC50 for displacement of [3H]PGF2alpha from full-length recombinant human FP receptor expressed in HEK293 cell membranes
Homo sapiens [9] = species on record: Homo sapiens; experiment: Selectivity ratio of IC50 for displacement of [3H]prostaglandin E2 from full-length recombinant human EP4 receptor expressed in Chem-1 cell membranes to IC50 for displacement of [3H]PGF2alpha from full-length recombinant human FP receptor expressed in HEK293 cell membranes
Homo sapiens [10] = species on record: Homo sapiens; experiment: Selectivity ratio of IC50 for displacement of [3H]prostaglandin E2 from full-length recombinant human EP3 receptor expressed in HEK293 cell membranes to IC50 for displacement of [3H]PGF2alpha from full-length recombinant human FP receptor expressed in HEK293 cell membranes
Homo sapiens [11] = species on record: Homo sapiens; experiment: Selectivity ratio of IC50 for displacement of [3H]prostaglandin E2 from full-length recombinant human EP2 receptor expressed in HEK293 cell membranes to IC50 for displacement of [3H]PGF2alpha from full-length recombinant human FP receptor expressed in HEK293 cell membranes
Homo sapiens [12] = species on record: Homo sapiens; experiment: Selectivity ratio of IC50 for displacement of [3H]prostaglandin E2 from full-length recombinant human EP1 receptor expressed in HEK293 cell membranes to IC50 for displacement of [3H]PGF2alpha from full-length recombinant human FP receptor expressed in HEK293 cell membranes
[13] = biological target: T1, Prostaglandin F2-alpha receptor; experiment: Antagonist activity at human FPR expressed in human Chem-1 cells assessed as inhibition of PGF2alpha-induced calcium flux preincubated for 10 mins followed by PGF2alpha stimulation and measured for 120 secs by fluo-8 AM dye based fluorescence assay; assay type: functional, cell-based
Cytochrome P450 2D6 = Cytochrome P450 2D6 (Homo sapiens, UniProt P10635); experiment: Inhibition of CYP2D6 in human liver microsomes using dextromethorphan as substrate incubated for 15 mins in presence of NADPH generating system by LC-MS/MS analysis; assay type: ADME
Sequence of Cytochrome P450 2D6 (P10635 whole entry): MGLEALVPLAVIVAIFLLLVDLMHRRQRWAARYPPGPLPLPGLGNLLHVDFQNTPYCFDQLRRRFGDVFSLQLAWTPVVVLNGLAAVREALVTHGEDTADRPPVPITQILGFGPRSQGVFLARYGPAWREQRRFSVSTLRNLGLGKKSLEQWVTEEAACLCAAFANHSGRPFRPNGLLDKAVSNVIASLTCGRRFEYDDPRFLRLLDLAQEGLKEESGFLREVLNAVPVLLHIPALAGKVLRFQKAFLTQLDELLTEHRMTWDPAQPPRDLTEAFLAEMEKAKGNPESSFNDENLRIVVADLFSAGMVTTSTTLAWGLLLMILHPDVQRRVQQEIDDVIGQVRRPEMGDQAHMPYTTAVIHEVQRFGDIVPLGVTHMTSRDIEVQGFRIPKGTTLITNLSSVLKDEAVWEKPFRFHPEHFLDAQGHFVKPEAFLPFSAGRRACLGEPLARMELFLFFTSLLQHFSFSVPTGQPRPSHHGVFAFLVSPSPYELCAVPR

Cytochrome P450 2C9 = Cytochrome P450 2C9 (Homo sapiens, UniProt P11712); experiment: Inhibition of CYP2C9 in human liver microsomes using diclofenac as substrate incubated for 15 mins in presence of NADPH generating system by LC-MS/MS analysis; assay type: ADME
Sequence of Cytochrome P450 2C9 (P11712 whole entry): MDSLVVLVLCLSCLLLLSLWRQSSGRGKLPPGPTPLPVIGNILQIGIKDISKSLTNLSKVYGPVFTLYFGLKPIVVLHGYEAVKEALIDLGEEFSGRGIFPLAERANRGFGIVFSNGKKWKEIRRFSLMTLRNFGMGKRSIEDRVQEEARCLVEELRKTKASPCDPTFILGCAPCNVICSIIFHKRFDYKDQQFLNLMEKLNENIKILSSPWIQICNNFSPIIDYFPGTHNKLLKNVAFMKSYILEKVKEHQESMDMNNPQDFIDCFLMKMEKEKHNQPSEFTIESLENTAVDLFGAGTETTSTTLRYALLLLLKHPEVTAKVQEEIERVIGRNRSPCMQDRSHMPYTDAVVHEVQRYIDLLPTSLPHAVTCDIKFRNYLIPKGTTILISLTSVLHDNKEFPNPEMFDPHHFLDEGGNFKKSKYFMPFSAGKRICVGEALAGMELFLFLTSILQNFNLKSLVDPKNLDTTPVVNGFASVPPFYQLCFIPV

Cytochrome P450 2C8 = Cytochrome P450 2C8 (Homo sapiens, UniProt P10632); experiment: Inhibition of CYP2C8 in human liver microsomes using amodiaquine as substrate incubated for 15 mins in presence of NADPH generating system by LC-MS/MS analysis; assay type: ADME
Sequence of Cytochrome P450 2C8 (P10632 whole entry): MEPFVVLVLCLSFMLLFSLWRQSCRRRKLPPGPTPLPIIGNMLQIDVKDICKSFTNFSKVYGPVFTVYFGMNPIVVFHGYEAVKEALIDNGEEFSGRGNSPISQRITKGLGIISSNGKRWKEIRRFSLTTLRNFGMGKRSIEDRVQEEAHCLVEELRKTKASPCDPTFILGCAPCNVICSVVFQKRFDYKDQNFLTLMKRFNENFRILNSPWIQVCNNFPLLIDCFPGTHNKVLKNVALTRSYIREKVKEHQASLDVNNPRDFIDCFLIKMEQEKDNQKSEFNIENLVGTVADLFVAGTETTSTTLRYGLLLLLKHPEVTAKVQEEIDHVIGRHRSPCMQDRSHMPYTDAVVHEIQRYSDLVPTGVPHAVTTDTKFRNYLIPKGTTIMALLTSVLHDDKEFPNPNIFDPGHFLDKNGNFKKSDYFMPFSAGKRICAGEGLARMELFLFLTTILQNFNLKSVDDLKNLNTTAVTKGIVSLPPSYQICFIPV

Cytochrome P450 1A2 = Cytochrome P450 1A2 (Homo sapiens, UniProt P05177); experiment: Inhibition of CYP1A2 in human liver microsomes using phenacetin as substrate incubated for 15 mins in presence of NADPH generating system by LC-MS/MS analysis; assay type: ADME
Sequence of Cytochrome P450 1A2 (P05177 whole entry): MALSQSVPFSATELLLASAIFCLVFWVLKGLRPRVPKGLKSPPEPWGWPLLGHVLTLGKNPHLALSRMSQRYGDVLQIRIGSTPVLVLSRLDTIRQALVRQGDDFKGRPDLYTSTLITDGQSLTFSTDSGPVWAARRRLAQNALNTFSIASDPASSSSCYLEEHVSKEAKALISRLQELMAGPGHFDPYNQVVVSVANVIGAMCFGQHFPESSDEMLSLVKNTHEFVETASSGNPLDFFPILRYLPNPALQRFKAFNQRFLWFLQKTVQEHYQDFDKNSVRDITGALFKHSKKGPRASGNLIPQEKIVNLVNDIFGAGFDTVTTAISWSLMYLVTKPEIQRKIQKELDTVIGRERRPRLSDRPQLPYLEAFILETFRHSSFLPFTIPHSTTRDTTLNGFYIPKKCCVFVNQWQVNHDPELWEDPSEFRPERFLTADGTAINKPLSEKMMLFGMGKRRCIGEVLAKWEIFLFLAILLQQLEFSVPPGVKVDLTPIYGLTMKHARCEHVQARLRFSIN

[14] = Half life in Wistar rat at 0.3 to 1 mg/kg, iv administered as bolus dose by LC-MS/MS analysis; assay type: ADME, organism-based; details: in vivo, dose 0.3-1 mg/kg
[15] = Oral bioavailability in Wistar rat at 1 to 3 mg/kg administered via gavage using EtOH/PEG400/H2O 10/40/50 formulation by LC-MS/MS analysis; assay type: ADME, organism-based; details: in vivo, dose 1-3 mg/kg
[16] = Clearance in Wistar rat at 0.3 to 1 mg/kg, iv administered as bolus dose by LC-MS/MS analysis; assay type: ADME, organism-based; details: in vivo, dose 0.3-1 mg/kg
Cytochrome P450 3A4 = Cytochrome P450 3A4 (Homo sapiens, UniProt P08684); experiment: Inhibition of CYP3A4 in human liver microsomes using midazolam as substrate incubated for 10 mins in presence of NADPH generating system by LC-MS/MS analysis
Sequence of Cytochrome P450 3A4 (P08684 whole entry): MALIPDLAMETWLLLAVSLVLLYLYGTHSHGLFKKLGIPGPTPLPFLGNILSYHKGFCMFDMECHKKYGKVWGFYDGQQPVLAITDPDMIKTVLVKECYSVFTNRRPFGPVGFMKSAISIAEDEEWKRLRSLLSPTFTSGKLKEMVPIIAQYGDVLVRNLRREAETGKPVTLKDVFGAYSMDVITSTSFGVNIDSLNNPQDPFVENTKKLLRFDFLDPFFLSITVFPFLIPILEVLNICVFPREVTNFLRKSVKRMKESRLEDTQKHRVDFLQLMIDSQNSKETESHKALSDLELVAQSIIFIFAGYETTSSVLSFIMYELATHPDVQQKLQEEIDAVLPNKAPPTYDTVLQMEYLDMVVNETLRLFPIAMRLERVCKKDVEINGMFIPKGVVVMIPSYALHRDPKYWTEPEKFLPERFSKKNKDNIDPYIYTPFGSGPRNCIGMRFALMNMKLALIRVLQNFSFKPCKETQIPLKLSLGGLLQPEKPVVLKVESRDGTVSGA

[17] = Oral bioavailability in Wistar rat at 1 to 3 mg/kg administered via gavage using EtOH/PEG400/H2O/DMSO 8/40/50/2 formulation by LC-MS/MS analysis; assay type: ADME, organism-based; details: in vivo, dose 1-3 mg/kg
Mus musculus [18] = experiment: Antifibrotic activity in silica-induced pulmonary fibrosis C57Bl6J mouse model assessed as decrease in lung osteopontin production at 3 to 30 mg/kg, po bid for 9 days measured post-last dose by Bio-Rad analysis; assay type: functional, organism-based; details: dose mg/kg 3-30, time 9.0 day
Mus musculus [19] = experiment: Antifibrotic activity in silica-induced pulmonary fibrosis C57Bl6J mouse model assessed as decrease in lung IL1beta production at 3 to 30 mg/kg, po bid for 9 days measured post-last dose by Bio-Rad analysis; assay type: functional, organism-based; details: dose mg/kg 3-30, time 9.0 day
Mus musculus [20] = experiment: Antifibrotic activity in silica-induced pulmonary fibrosis C57Bl6J mouse model assessed as decrease in lung MCP1 production at 3 to 30 mg/kg, po bid for 9 days measured post-last dose by Bio-Rad analysis; assay type: functional, organism-based; details: dose mg/kg 3-30, time 9.0 day
[21] = biological target: Prostaglandin F2-alpha receptor (Mus musculus) (UniProt P43117); experiment: Antagonist activity at FPR in mouse NIH3T3 cells co-transfected with mtClytin assessed as inhibition of PGF2alpha-induced calcium flux preincubated for 5 mins followed by PGF2alpha stimulation and measured for 60 secs by calcium dye based fluorescence assay; assay type: functional, cell-based; details: filed as antagonist, time 6.0 min
Sequence of Prostaglandin F2-alpha receptor (Mus musculus) (P43117 whole entry): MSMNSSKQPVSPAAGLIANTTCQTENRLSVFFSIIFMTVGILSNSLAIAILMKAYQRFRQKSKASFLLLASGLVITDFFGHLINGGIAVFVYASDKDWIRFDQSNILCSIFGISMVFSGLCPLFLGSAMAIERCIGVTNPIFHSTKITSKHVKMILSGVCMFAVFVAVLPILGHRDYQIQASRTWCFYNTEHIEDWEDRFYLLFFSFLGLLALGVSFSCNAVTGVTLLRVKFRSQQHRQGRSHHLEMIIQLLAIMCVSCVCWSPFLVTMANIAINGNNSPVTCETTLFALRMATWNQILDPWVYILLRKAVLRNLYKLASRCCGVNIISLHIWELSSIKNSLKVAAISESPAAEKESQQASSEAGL

[22] = Solubility of compound at pH 1 to 7 using crystalline form of sample; assay type: physicochemical
[23] = Clearance in Wistar rat at 0.3 to 1 mg/kg, iv administered as bolus dose or 15 mins infusion by LC-MS/MS analysis; assay type: ADME, organism-based; details: in vivo, dose 0.3-1 mg/kg
[24] = Protein binding in pooled human plasma assessed as unbound fraction incubated for 6 hrs by LC-MS/MS analysis based equilibrium dialysis method; assay type: ADME, cell-free
[25] = Lipophilicity, log D of compound at pH 7.5 by HPLC analysis; details: buffer
[26] = Toxicity in Wistar rat up to 200 mg/kg/day, po administered for 14 days; assay type: organism-based; details: in vivo, 336 h, time 14 day
[27] = Induction of CYP3A4 mRNA expression in human hepatocytes supplemented with fresh medium containing compounds daily for 2 days measured 24 hrs post last dose by qRT-PCR analysis; details: 72 h

## Cc1c(-c2cccs2)nc2ccc(Br)cc2c1C(=O)NCCc1cccnc1
Prostacyclin receptor
  inhibition: inactive
[1]
  inhibition: inactive
[2]
  inhibition: inactive
[3]
  inhibition: inactive
[4]
  IC50: 4.4 µM
[5]
  inhibition: inactive
[6]
  IC50: 1.4 µM
Homo sapiens [7]
  Ratio IC50: > 3.1
Homo sapiens [8]
  Ratio IC50: > 3.1
Homo sapiens [9]
  Ratio IC50: > 3.1
Homo sapiens [10]
  Ratio IC50: > 3.1
Homo sapiens [11]
  Ratio IC50: > 3.1
Homo sapiens [12]
  Ratio IC50: > 3.1
[13]
  IC50: 1.8 µM

## Cc1c(-c2ccccc2)nc2ccc(Br)cc2c1C(=O)NC12CCC(C(=O)O)(CC1)CC2
Cytochrome P450 2D6
  IC50: > 10 µM
Cytochrome P450 2C9
  IC50: > 10 µM
Cytochrome P450 2C8
  IC50: > 10 µM
Cytochrome P450 1A2
  IC50: > 10 µM
[14]
  half-life: 15 h
[15]
  bioavailability: 100%
[16]
  clearance: 0.5 mL/min/kg
Cytochrome P450 3A4
  IC50: > 10 µM
[17]
  bioavailability: 90%

## Cc1c(N2CCCC2)nc2ccc(Br)cc2c1C(=O)NC[C@H](CCC(=O)O)c1ccccc1Cl
Mus musculus [18]
  Activity: Active
Mus musculus [19]
  Activity: Active
Mus musculus [20]
  Activity: Active
[21]
  fIC50: 5.2 nM

## Cc1c(-c2ccccc2)nc2ccc(Br)cc2c1C(=O)Nc1ccc(C(=O)O)cc1F
[22]
  solubility: 1 µg/mL (≈ 2.09 µM)
[14]
  half-life: 3.1 h
[15]
  bioavailability: 100%
[23]; Wistar
  clearance: 16.7 mL/min/kg
Cytochrome P450 3A4
  IC50: > 20 µM
[24]
  fraction unbound at 6 h: 0.016
[25]
  logD: 1.9
[13]
  IC50: 0.027 µM

## Cc1c(-c2ccccc2)nc2ccc(Br)cc2c1C(=O)NCC(CC(=O)O)c1ccccc1Cl (single isomer, unassigned; (+))
[14]
  half-life: 2.6 h
[15]
  bioavailability: 90%
[23]; 0.25 h
  CL: 43.3 mL/min/kg
Cytochrome P450 3A4
  IC50: > 20 µM
[25]
  logD: 2
[26]
  Activity: Non-Toxic
[27]
  NOAEL: 6 µM
